From US10786575B2, “Self-emulsifying composition of Ω3 fatty acid” (priority 2015, dated 2020)
Read-outs that look alike come from different tables or passages of the source.

Tests used:
[1] = human, in vivo, po, 3600 mg
Protocol: (§1) The capsule having the self-emulsifying composition of the present invention containing 80% by weight of EPA-E as its content was orally administered to human (12 cases, healthy adult males of 20 to 40 years old with a body weight of 55.0 to 77.0 kg and a BMI of 18.5 or more but less than 25.0) under fasting conditions to evaluate the change of blood EPA concentration. The self-emulsifying composition in an amount corresponding to 1800 mg of EPA-E was orally administered in single dose to each human who had been fasted since 10 hours or more before the administration by using 200 mL of water in the morning under fasting. The blood was collected 0.5, 1, 1.5, 2, 3, 4, 5, 6, 7, 8, 9, 10, 12, 15, 18, 24, 48 and 72 hours after the administration. Immediately after the collection, the blood was cooled on ice, and centrifuged at 2000×g at 4° C. for 10 minutes to separately collect the plasma. After having stored the resulting plasma at a temperature not higher than −20° C. in frozen state, concentration of the EPA in the plasma was measured by LC/MS/MS (method in which a sample is isolated by liquid chromatography, then subjected to mass spectrometry to conduct separation and measurement thereon).
(§2) The capsule having the self-emulsifying composition of the present invention containing 80% by weight of EPA-E as its content was also orally administered to human immediately after meals, and the measurement was conducted by repeating the procedure as described above.
(§3) For the control group, the EPA-E stock solution (high purity EPA-E (at least 96.5% by weight) containing no emulsifier or the like and used with the same EPA-E amount as that of the self-emulsifying composition of the present invention; the same applying hereafter) filled in the capsule was orally administered to human (12 cases, healthy adult males of 20 to 40 years old with a body weight of 55.0 to 77.0 kg and a BMI of 18.5 or more but less than 25.0) under fasting conditions (fasting since at least 10 hours before the administration), and the measurement was conducted by repeating the procedure as described above.
This test was conducted on 6 humans. […] In the calculation of each parameter, correction was made by subtracting the blood EPA concentration before the administration from the measured blood concentration.

[2] = human, in vivo, po, 1800 mg
Protocol: as §1, §2, §3
In the calculation of each parameter, correction was made by subtracting the blood EPA concentration before the administration from the measured blood concentration.

[3] = Test Example 5: pharmacokinetics in beagles (plasma EPA, LC/MS/MS); design: species or system male beagles; conditions: dog, in vivo, po, 600 mg
Protocol: The produced compositions or capsules (Examples 1, 3 and 5) were each orally administered to 6 male beagles (at the age of 2 to 6 years with the body weight of 8 to 13 kg, 3 Marshall beagles and 3 Nosan beagles) under fasting conditions, and blood EPA concentration was evaluated. […] The control group was administered with the EPA-E stock solution encapsulated in a capsule.

**Q.** With `CC/C=C\C/C=C\C/C=C\C/C=C\C/C=C\CCCC(=O)OCC` [Comp. Ex. 5, Ethyl eicosapentaenoate] as the compound, how does the AUC0-72 hr [1] read?
**A.** The AUC0-72 hr was 113.7 µg·h/mL.

**Q.** What about the Cmax [1] of the same compound?
**A.** The Cmax was 3.6 µg/mL.

**Q.** What about the Tmax [1] of the same compound?
**A.** Its Tmax is 21.8 h.

**Q.** And the t½ [1]?
**A.** Its t½ is 22.8 h.

**Q.** What about the AUC0-72 hr [2] of the same compound?
**A.** The AUC0-72 hr was 113.1 µg·h/mL.

**Q.** What about the Cmax [2] of the same compound?
**A.** The Cmax was 4.6 µg/mL.

**Q.** And the Tmax [2]?
**A.** Its Tmax is 10.8 h.

**Q.** What about the t½ [2] of the same compound?
**A.** The t½ was 71.7 h.

**Q.** What about the AUC0-1 [3] of the same compound?
**A.** The AUC0-1 was 11.3 µg·h/mL.

**Q.** And the AUC0-26 [3]?
**A.** Its AUC0-26 is 76.6 µg·h/mL.

**Q.** And the Cmax [3]?
**A.** Its Cmax is 18.4 µg/mL.
